In the experiment the target is T1, CYP 3A4 (Homo sapiens, UniProt P08684).
T1 construct: purchased BioIVT X008067
Kind of experiment: CYP 3A4 time-dependent inhibition test. Type of experiment: in vitro ADME. The conditions noted are these: midazolam substrate. Here is the method: CYP 3A4 and the test compound or mifepristone of various concentrations were added to a 96-deep well plate for pre-incubation. The plate was placed in a water bath and preheated at 37° C. for 5 min. For the 0 min pre-incubation samples, midazolam substrate was added to the incubation plate, then 10 mM NADPH solution was added, and the reaction was carried out in a 37° C. water bath for 5 min; for the 30 min pre-incubation samples with NADPH, 10 mM NADPH solution was added to the incubation plate, pre-incubated in a 37° C. water bath for 30 min, and then midazolam substrate was added and reacted in a 37° C. water bath for 5 min; for the 30 min pre-incubation samples without NADPH, the incubation plate was pre-incubated in a 37° C. water bath for 30 min, then midazolam substrate was added, 10 mM NADPH solution was added, and the reaction was carried out in a 37° C. water bath for 5 min. After the reaction was completed, the quenching solution (500 nM tolbutamide (Bide Pharmaceuticals, Cat. No. BD154332) and 10 nM terfenadine (Sigma, Cat. No. T96532)) were added to quench the reaction, and the plate was centrifuged at 3,220 g for 40 min at 4° C. The supernatant was pipetted into a new plate, the supernatant was diluted with pure water and mixed well, and the sample was analyzed using UPLC-MS/MS.

[1] abbreviates: 0 min pre-incubation, read-out: IC50 (μM) 0 min.
The mark [2] stands for this setting: 30 min pre-incubation with NADPH, read-out: IC50 (μM) 30 min, with NADPH.
The mark [3] stands for this setting: 30 min pre-incubation without NADPH, read-out: IC50 (μM) 30 min, without NADPH.

Where two headings read alike, the source gives them in different places.

T1 sequence (P08684 whole entry): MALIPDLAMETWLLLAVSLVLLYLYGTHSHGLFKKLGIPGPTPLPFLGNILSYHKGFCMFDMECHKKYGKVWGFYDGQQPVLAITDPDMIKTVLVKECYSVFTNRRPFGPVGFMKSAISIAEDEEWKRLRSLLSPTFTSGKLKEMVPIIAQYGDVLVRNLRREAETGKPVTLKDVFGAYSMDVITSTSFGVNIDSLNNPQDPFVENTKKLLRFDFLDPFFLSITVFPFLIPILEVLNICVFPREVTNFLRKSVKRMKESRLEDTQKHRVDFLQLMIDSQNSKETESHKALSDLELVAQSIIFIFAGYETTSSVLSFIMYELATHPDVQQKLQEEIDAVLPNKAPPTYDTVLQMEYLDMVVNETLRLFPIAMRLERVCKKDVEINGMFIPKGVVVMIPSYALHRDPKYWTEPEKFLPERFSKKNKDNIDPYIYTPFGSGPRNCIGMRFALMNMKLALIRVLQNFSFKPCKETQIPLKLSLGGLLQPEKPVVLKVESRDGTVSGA

The IC50 is the concentration that gives 50% inhibition. For `CNC(=O)c1ccc(NCC#Cc2nc3c(N[C@@H]4CCN(C)C[C@@H]4F)cccn3c2CC(F)(F)F)c(OC)c1` [Compound 5], the IC50 is, setting by setting: under setting [1], 8.05 µM; under setting [2], 1.89 µM; under setting [3], 8.36 µM.
The corresponding values for `[2H]C([2H])([2H])NC(=O)c1ccc(NCC#Cc2cc3c(NC4CCC(N5CC6(COC6)C5)CC4F)cccn3c2CC(F)(F)F)c(OC([2H])([2H])[2H])c1` (single isomer, unassigned) [Compound 74d] are 4.55 µM, 1.56 µM and 5.91 µM.
`CNC(=O)c1ccc(NCC#Cc2nc3c(NC4CCC(N5CC6(COC6)C5)CC4F)cccn3c2CC(F)(F)F)c(OC)c1` (single isomer, unassigned) [Compound 35-6i]: the IC50 is 7.48 µM under setting [1], 3.01 µM under setting [2] and 7.46 µM under setting [3].

The record behind these values is US20260132128A1, “COMPOUND FOR RECOVERING P53 MUTATION FUNCTION AND USE THEREOF” (SHENZHEN ZHONGGE BIOLOGICAL TECHNOLOGY CO., LTD., priority 2022, published 2026).
